A word on the Ki: it is a dissociation constant, usually derived from enzyme kinetics or from competition with a known ligand. Low readings indicate higher affinity, high ones lower affinity.

The structures appear in SMILES notation.

The assay addresses T1, Corticotropin-releasing factor receptor 1 (Homo sapiens, UniProt P34998).
T1 sequence (P34998 whole entry): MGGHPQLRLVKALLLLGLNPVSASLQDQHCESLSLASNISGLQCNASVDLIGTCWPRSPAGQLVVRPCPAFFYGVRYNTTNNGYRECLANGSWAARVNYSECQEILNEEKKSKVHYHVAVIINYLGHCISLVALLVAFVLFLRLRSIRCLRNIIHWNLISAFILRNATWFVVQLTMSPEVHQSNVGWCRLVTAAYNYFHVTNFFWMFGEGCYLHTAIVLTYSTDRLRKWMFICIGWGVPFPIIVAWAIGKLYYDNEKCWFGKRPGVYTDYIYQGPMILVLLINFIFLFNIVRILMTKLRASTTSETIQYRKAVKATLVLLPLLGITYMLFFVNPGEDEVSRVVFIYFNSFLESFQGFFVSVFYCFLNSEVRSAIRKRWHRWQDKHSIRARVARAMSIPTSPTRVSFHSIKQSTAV
The assay can be described thus: Antagonistic activity for Corticotropin releasing factor receptor 1. Format: functional.
The compound `COc1cc(Br)c(Nc2nc(C)nc(-c3ccccc3C(F)(F)F)c2[N+](=O)[O-])c(OC)c1` displayed an inhibition constant (Ki) of 0.0231 µM. This counts as double-digit nanomolar.

In turn, `CCN(c1nc(C)nc(-c2ccccc2C(F)(F)F)n1)c1ccc(C(C)C)cc1Br` gave a Ki of 0.0055 µM.

`COc1cc(Br)c(-n2c(=O)n(C)c3c(-c4ccccc4C(F)(F)F)nc(C)nc32)c(OC)c1` yielded a Ki of 0.0955 µM. This Ki lies about 17-fold higher than the previous one.

With `COc1cc(Br)c(Nc2nc(C)nc(-c3ccccc3C(F)(F)F)c2N)c(OC)c1`, the affinity corresponds to a Ki of 0.0603 µM.

In turn, `COc1cc(Br)c(-n2c(C)nc3c(-c4ccccc4C(F)(F)F)nc(C)nc32)c(OC)c1` had a Ki of 0.0323 µM.

The compound `CCN(CC1CC1)c1nc(C)nc(Nc2c(Cl)cc(Cl)cc2Cl)c1C` displayed a Ki of 0.002 µM.

`CSc1nn(-c2c(Cl)cc(Cl)cc2Cl)c2nc(C)nc(-c3ccccc3C(F)(F)F)c12` registered a Ki of 0.0334 µM.

As for `COc1cc(Br)c(-n2c(=O)[nH]c3c(-c4ccccc4C(F)(F)F)nc(C)nc32)c(OC)c1`, the affinity corresponds to a Ki of 0.202 µM.

On to `Cc1cc(C)c(-n2nnc3c(-c4ccccc4C(F)(F)F)nc(C)nc32)c(C)c1`, for which the Ki turned out to be 0.168 µM.

`Cc1cc(C)c(-n2c(C)c(C)c3c(-c4ccccc4C(F)(F)F)nc(C)nc32)c(C)c1` registered a Ki of 0.0097 µM. This Ki lies about 17-fold lower than the previous one.

`COc1cc(Br)c(-n2nnc3c(-c4ccccc4C(F)(F)F)nc(C)nc32)c(OC)c1` showed a Ki of 0.0214 µM.

Compound `CCCCN(CC)c1nc(C)nc2c1nnn2-c1c(Br)cc(OC)cc1OC` came in with a Ki of 0.0035 µM.
